Assay results from patent US4362743A, “Antibacterial monic acid esters” (Beecham Group Limited, priority 1980, dated 1982).
In brackets after ≈: the same amount, converted by molar mass. Like-named read-outs stand apart in the source and are kept apart here.

Experiments:
Format in all cases: cell-based
[1] = system: M. suipneumoniae TAM 6N; assay: Anti-mycoplasmal activity in vitro MIC; conditions: Mesomycoplasma hyopneumoniae, TAM6N, 144 h
[2] = system: M. suipneumoniae JF 435; assay: Anti-mycoplasmal activity in vitro MIC; conditions: Mesomycoplasma hyopneumoniae, JF435, 144 h
[3] = system: M. suipneumoniae HK (2); assay: Anti-mycoplasmal activity in vitro MIC; conditions: Mesomycoplasma hyopneumoniae, 144 h
[4] = system: M. suipneumoniae UCD 1; assay: Anti-mycoplasmal activity in vitro MIC; conditions: Mesomycoplasma hyopneumoniae, UCD1, 144 h
[5] = system: M. suipneumoniae ATCC 25095; assay: Anti-mycoplasmal activity in vitro MIC; conditions: Mesomycoplasma hyopneumoniae, ATCC25095, 144 h
[6] = system: M. gallisepticum S6; assay: Anti-mycoplasmal activity in vitro MIC; conditions: Mycoplasmoides gallisepticum, 144 h; M. gallisepticum S6; Friis broth, 0.9% agarose, 6 days 37° C.; read-out: M.I.C.
[7] = system: M. dispar NCTC 10125; assay: Anti-mycoplasmal activity in vitro MIC; conditions: 144 h
[8] = system: M. hyosynoviae ATCC 25591; assay: Anti-mycoplasmal activity in vitro MIC; conditions: 144 h
[9] = system: Bord. brochiasetpica B09; assay: Veterinary bacteria MIC; conditions: Diagnostic Sensitivity Test Agar, 18 hours 37° C.
Protocol: (§1) The values were determined using a two fold serial dilutions in Diagnostic Sensitivity Test Agar with an inoculum of 10^4 organisms and incubation for 18 hours at 37° C.

[10] = system: S. typhimurium S18; assay: Veterinary bacteria MIC; conditions: Salmonella enterica; S. typhimurium S18; Diagnostic Sensitivity Test Agar, 18 hours 37° C.; read-out: M.I.C.
Protocol: as §1

[11] = system: S. dublin S7; assay: Veterinary bacteria MIC; conditions: Salmonella enterica; S. dublin S7; Diagnostic Sensitivity Test Agar, 18 hours 37° C.; read-out: M.I.C.
Protocol: as §1

[12] = system: Staph. aureus 152 (pen. sens); assay: Veterinary bacteria MIC; conditions: Staphylococcus aureus, Diagnostic Sensitivity Test Agar, 18 hours 37° C.
Protocol: as §1

[13] = system: Strep. dysgalactiae SPD1; assay: Veterinary bacteria MIC; conditions: Streptococcus dysgalactiae, Diagnostic Sensitivity Test Agar, 18 hours 37° C.
Protocol: as §1

[14] = system: Erysipelothrix rhusiopathiae NCTC 8163; assay: Veterinary bacteria MIC
Protocol: as §1

[15] = system: Staph. aureus B4 (pen. resistant); assay: Veterinary bacteria MIC; conditions: Staphylococcus aureus, Diagnostic Sensitivity Test Agar, 18 hours 37° C.
Protocol: as §1

[16] = system: E. coli El; assay: Veterinary bacteria MIC; conditions: Escherichia coli; E. coli El; Diagnostic Sensitivity Test Agar, 18 hours 37° C.; read-out: M.I.C.
Protocol: as §1

[17] = system: Past. multocida PA2; assay: Veterinary bacteria MIC; conditions: Pasteurella multocida
Protocol: as §1

[18] = system: Past. multocida PA1; assay: Veterinary bacteria MIC; conditions: Pasteurella multocida, Diagnostic Sensitivity Test Agar, 18 hours 37° C.
Protocol: as §1

[19] = system: Strep. agalactiae SPA1; assay: Veterinary bacteria MIC; conditions: Streptococcus agalactiae, Diagnostic Sensitivity Test Agar, 18 hours 37° C.
Protocol: as §1

[20] = system: Corynebacterium pyogenes CY1; assay: Veterinary bacteria MIC; conditions: Trueperella pyogenes; Corynebacterium pyogenes CY1; Diagnostic Sensitivity Test Agar, 18 hours 37° C.; read-out: M.I.C.
Protocol: as §1

[21] = system: Past. haemolytica PA5; assay: Veterinary bacteria MIC; conditions: Mannheimia haemolytica; Past. haemolytica PA5; Diagnostic Sensitivity Test Agar, 18 hours 37° C.; read-out: M.I.C.
Protocol: as §1

[22] = system: Strep. uberis SPU1; assay: Veterinary bacteria MIC; conditions: Streptococcus uberis, Diagnostic Sensitivity Test Agar, 18 hours 37° C.
Protocol: as §1

[23] = system: Bord. bronchiseptica B08; assay: Veterinary bacteria MIC; conditions: Bordetella bronchiseptica; Bord. bronchiseptica B08; Diagnostic Sensitivity Test Agar, 18 hours 37° C.; read-out: M.I.C.
Protocol: as §1

[24] = system: E. coli NCTC 10418; assay: Veterinary bacteria MIC; conditions: Escherichia coli, NCTC10418; E. coli NCTC 10418; Diagnostic Sensitivity Test Agar, 18 hours 37° C.; read-out: M.I.C.
Protocol: as §1

[25] = system: Strep. suis (Group D) SPS11; assay: Veterinary bacteria MIC; conditions: Streptococcus suis; Strep. suis (Group D) SPS11; Diagnostic Sensitivity Test Agar, 18 hours 37° C.; read-out: M.I.C.
Protocol: as §1

[26] = system: Staph. aureus Oxford; assay: Veterinary bacteria MIC; conditions: Staphylococcus aureus, Diagnostic Sensitivity Test Agar, 18 hours 37° C.
Protocol: as §1

[27] = system: Sarcina lutea 8340; assay: Human bacteria MIC; conditions: Micrococcus luteus; Sarcina lutea 8340; nutrient agar, 5% chocolated horse blood, 18 hours 37° C.; read-out: M.I.C.
Protocol: The values were determined by serial dilutions in nutrient agar with 5% chocolated horse blood after incubations for 18 hours at 37° C.

[28] = system: M. suipneumoniae NB12; assay: Anti-mycoplasmal activity in vitro MIC; conditions: Mesomycoplasma hyopneumoniae
[29] = system: M. suipneumoniae Str. 11; assay: Anti-mycoplasmal activity in vitro MIC; conditions: Mesomycoplasma hyopneumoniae
[30] = system: M. suipneumoniae NCTC 10110; assay: Anti-mycoplasmal activity in vitro MIC; conditions: Mesomycoplasma hyopneumoniae, NCTC10110, 144 h

SMILES | MIC [4] [µg/mL] | MIC [6] [µg/mL] | MIC [9] [µg/mL] | MIC [10] [µg/mL] | MIC [11] [µg/mL] | MIC [12] [µg/mL] | MIC [13] [µg/mL] | MIC [15] [µg/mL] | MIC [16] [µg/mL] | MIC [18] [µg/mL] | MIC [19] [µg/mL] | MIC [20] [µg/mL] | MIC [21] [µg/mL] | MIC [22] [µg/mL] | MIC [23] [µg/mL] | MIC [24] [µg/mL] | MIC [25] [µg/mL] | MIC [26] [µg/mL] | MIC [27] [µg/mL] | MIC [30] [µg/mL] | further results
C/C(=C\C(=O)OCCCC(=NO)c1cccs1)C[C@@H]1OC[C@H](C[C@@H]2O[C@H]2[C@@H](C)[C@H](C)O)[C@@H](O)[C@H]1O [Example 4, 4-Hydroxyimino-4-(2-thienyl)butyl monate A] | 0.5 (≈ 0.977 µM) | 10 (≈ 19.5 µM) | 5 (≈ 9.77 µM) | > 80 | > 80 | 0.312 (≈ 0.61 µM) | 0.625 (≈ 1.22 µM) | 0.625 (≈ 1.22 µM) | > 80 | 2.5 (≈ 4.89 µM) | 0.625 (≈ 1.22 µM) | > 80 | 20 (≈ 39.1 µM) | 0.312 (≈ 0.61 µM) | > 80 | > 80 | 10 (≈ 19.5 µM) | 0.312 (≈ 0.61 µM) | > 100 | 0.5 (≈ 0.977 µM) | MIC [1]: 0.5 µg/mL (≈ 0.977 µM); MIC [2]: 0.5 µg/mL (≈ 0.977 µM); MIC [3]: 0.5 µg/mL (≈ 0.977 µM); MIC [5]: 0.5 µg/mL (≈ 0.977 µM); MIC ([7]; M. dispar NCTC 10125, Friis broth, 0.9% agarose, 6 days 37° C., read-out: M.I.C.): 0.1 µg/mL (≈ 0.195 µM); MIC ([8]; M. hyosynoviae ATCC 25591, Friis broth, 0.9% agarose, 6 days 37° C., read-out: M.I.C.): 0.25 µg/mL (≈ 0.489 µM); MIC ([14]; NCTC8163, Erysipelothrix rhusiopathiae NCTC 8163, Diagnostic Sensitivity Test Agar, 18 hours 37° C., read-out: M.I.C.): 20 µg/mL (≈ 39.1 µM); MIC ([17]; PA2, 18 h): 0.156 µg/mL (≈ 0.305 µM); MIC ([28]; 144 h, M. suipneumoniae NB12, Friis broth, 0.9% agarose, 6 days 37° C., read-out: M.I.C.): 0.25 µg/mL (≈ 0.489 µM); MIC ([29]; 144 h, M. suipneumoniae Str. 11, Friis broth, 0.9% agarose, 6 days 37° C., read-out: M.I.C.): 0.25 µg/mL (≈ 0.489 µM)
CON=C(CCCOC(=O)/C=C(\C)C[C@@H]1OC[C@H](C[C@@H]2O[C@H]2[C@@H](C)[C@H](C)O)[C@@H](O)[C@H]1O)c1ccccc1 [Example 5, 4-Methoxyimino-4-phenylbutyl monate A] | 0.25 (≈ 0.481 µM) | 10 (≈ 19.2 µM) | 40 (≈ 77 µM) | > 80 | > 80 | 0.625 (≈ 1.2 µM) | 1.25 (≈ 2.41 µM) | 0.625 (≈ 1.2 µM) | > 80 | 20 (≈ 38.5 µM) | 1.25 (≈ 2.41 µM) | > 80 | 80 (≈ 154 µM) | 0.625 (≈ 1.2 µM) | > 80 | > 80 | 20 (≈ 38.5 µM) | 0.625 (≈ 1.2 µM) | > 100 | 0.25 (≈ 0.481 µM) | MIC ([1]; M. suipneumoniae TAM 6N, Friis broth, 0.9% agarose, 6 days 37° C., read-out: M.I.C.): 0.5 µg/mL (≈ 0.962 µM); MIC ([2]; M. suipneumoniae JF 435, Friis broth, 0.9% agarose, 6 days 37° C., read-out: M.I.C.): 0.5 µg/mL (≈ 0.962 µM); MIC ([3]; M. suipneumoniae HK (2), Friis broth, 0.9% agarose, 6 days 37° C., read-out: M.I.C.): 0.5 µg/mL (≈ 0.962 µM); MIC ([5]; M. suipneumoniae ATCC 25095, Friis broth, 0.9% agarose, 6 days 37° C., read-out: M.I.C.): 0.5 µg/mL (≈ 0.962 µM); MIC [7]: 0.1 µg/mL (≈ 0.192 µM); MIC [8]: 0.25 µg/mL (≈ 0.481 µM); MIC ([14]; Erysipelothrix rhusiopathiae, NCTC8163, 18 h): 40 µg/mL (≈ 77 µM); MIC ([17]; Past. multocida PA2, Diagnostic Sensitivity Test Agar, 18 hours 37° C., read-out: M.I.C.): 0.039 µg/mL (≈ 0.0751 µM); MIC ([28]; NB12, 144 h): 0.25 µg/mL (≈ 0.481 µM); MIC ([29]; STR.11, 144 h): 0.25 µg/mL (≈ 0.481 µM)
